For series [1] the following is noted: cited from earlier work.
In series [2] the test system is human derived keratinocytes. In words: ROS production in H2O2-treated keratinocytes (alpha-tocopherol, EGT, sodium PCA), ROS Detection Assay Kit. It counts as cell-based. To be noted: alpha-tocopherol 0.001%, EGT 0.01%, Na PCA 0.01%; for % Decrease in ROS generated in keratinocyte: relative to 0.3 wt. % H2O2 treatment; for Fold Change, decrease in ROS generated in keratinocyte by antioxidant treatment: vs. 0.1 wt. % DMSO + 0.3 wt. % H2O2. The text has this: Sample preparation: Human derived keratinocytes, plated on 24-well plates.
Cellular ROS/Superoxide Detection Assay Kit (Abcam—ab139476)

The test system of series [3] is human derived keratinocytes. In words: ROS production in H2O2-treated keratinocytes (alpha-tocopherol, EGT, niacinamide), ROS Detection Assay Kit. To be noted: alpha-tocopherol (0.001%) [sic], EGT 0.01%, niacinamide 0.01%; for % Decrease in ROS generated in keratinocyte: relative to 0.3 wt. % H2O2 treatment; for Fold Change, decrease in ROS generated in keratinocyte by antioxidant treatment: vs. 0.1% DMSO + 0.3% H2O2. In kind it is cell-based. On the procedure:
Hydrogen peroxide treated cells were then treated with: alpha-tocopherol, ergothioneine and niacinamide, respectively and in combination. […] [table] […] [table]

In the case of `O=C1O[C@H]([C@@H](O)CO)C(O)=C1O[C@H]1O[C@H](CO)[C@@H](O)[C@H](O)[C@H]1O` [ascorbyl glucoside], in series [1], the Log P (in general, a log measure of how a compound divides between an organic and an aqueous phase) was −2.5.
Consider `C[N+](C)(C)[C@@H](Cc1c[nH]c(=S)[nH]1)C(=O)[O-]` [EGT, Ergothioneine], for which the “% Decrease in ROS generated in keratinocyte” value (shortened to “% Decrease in ROS generated”) in series [2] was 74.5%; in series [3] it was 15.91%. The “Fold Change, decrease in ROS generated in keratinocyte by antioxidant treatment” value (“Fold Change, decrease in ROS generated” for short) in series [2] was 4.43-fold decrease; in series [3] it was 0.31-fold decrease.
Consider `O=C1CCC(C(=O)[O-])N1.[Na+]` (stereo not drawn) [Na PCA, Sodium PCA], for which the “% Decrease in ROS generated” value is reported as 37.88% in series [2], 37.9% in series [2] (listed as Sodium PCA) and 25.75% in series [3]. In addition, the “Fold Change, decrease in ROS generated” value in series [2] is listed as 2.25-fold decrease.
For `NC(=O)c1cccnc1` [Niacinamide], the “Fold Change, decrease in ROS generated” value in series [3] is recorded as 0.24-fold decrease.
Take `Cc1c(C)c2c(c(C)c1O)CC[C@@](C)(CCC[C@H](C)CCC[C@H](C)CCCC(C)C)O2` [Alpha-tocopherol, alpha-tocopherol]: the “% Decrease in ROS generated” value in series [2] was found to be 70.72%; in series [2] (listed as α-tocopherol), 70.72%; in series [3] it was 20.79%. The “Fold Change, decrease in ROS generated” value in series [2] is listed as 4.21-fold decrease; in series [3], 0.4-fold decrease.

(Values after patent publication US20230320970A1, “Skin Care Compositions” (Colgate-Palmolive Company, priority 2022, published 2023).)
